Measured values as given in patent US5622989A, “Amino-benzofuryl-and thienyl-derivatives” (Bayer Aktiengesellschaft, priority 1994, dated 1997).

Test system: human PMN
Experiment: Inhibition of FMLP-stimulated production of superoxide radical anions
Type: cell-based
Details: Neutrophil, neutrophils stimulated with 4×10^-8 M FMLP; for inhibition at 10 µM: 10 μM compound
Experimental: 1. Preparation of human PMN
Blood was taken from healthy subjects by venous puncture and neutrophils were purified by dextran sedimentation and resuspended in the buffered medium.
2. Inhibition of FMLP-stimulated production of superoxide racidal anions.
Neutrophils (2.5×10^5 ml^-1) were mixed with cytochrome C (1.2 mg/ml) in the wells of a microtitre plate. Compounds according to the invention were added in dimethyl sulphoxide (DMSO). Compound concentration ranged from 2.5 nM to 10 μM, the DMSO concentration was 0.1% v/v in all wells. After addition of cytochalasin b (5 μg×ml^-1) the plate was incubated for 5 min at 37° C. Neutrophils were then stimulated by addition of 4×10^-8 M FMLP and superoxide generation measured as superoxide dismutase inhibitable reduction of cytochrome C by monitoring the OD550 in a Thermomax microtitre plate spectrophotometer. Initial rates were calculated using a Softmax kinetic calculation programme. Blank wells contained 200 units of superoxide dismutase.
The inhibition of superoxide production was calculated as follows: [formula] Rx=Rate of the well containing the compound according to the invention. Ro=Rate in the control well.
Rb=Rate in the superoxide dismutase containing blank well.

Row | IC50 [µM] | SMILES | inhibition at 10 µM [%]
1 | 0.42 | CSc1ccc(C(=O)c2oc3cc(NC(C)=O)ccc3c2CCC(=O)O)cc1 [Example 21] | 90
2 | 0.6 | COc1cccc(C(=O)c2oc3cc(NC(C)=O)ccc3c2CCC(=O)O)c1 [Example 24] | 68
